This note sets out measurements from publication doi:10.1101/2025.02.17.638454, “Synergistic RAS-MAPK and AKT Activation in MYC-Driven Tumors via Adjacent PVT1 Rearrangements” (bioRxiv, 2025).

In series [1] the test system is D458 cells. The series can be described thus: Proliferation assay D458. Type of series: cell-based, human. The following applies: D458, stable knockdown of PVT1ts vs sh.Cntrl; two-way ANOVA.
For series [2], the system named is MYC. The series can be described thus: Western blot of MYC in D458. Type of series: cell-based, human. The following applies: D458, stable knockdown of PVT1ts vs sh.Cntrl; n=3, unpaired t-test. Here is the method: For whole-cell lysate, the cell pellet was resuspended in RIPA buffer (Cell Signaling Technologies, Danvers, MA) supplemented with a protease inhibitor cocktail (Cell Signaling Technologies) and incubated on ice for 20 minutes. The lysate was then centrifuged at 14,000 revolutions/minute for 10 minutes at 4°C, and the supernatant was harvested. Protein concentration was quantified by BCA Protein Assay Kit (Thermo Fisher Scientific) as per kit protocol. Next, 20 μg of whole-cell lysate was electrophoresed on a 4%–20% gradient polyacrylamide gel with SDS (Bio-Rad, Hercules, CA) and electroblotted onto polyvinylidene difluoride membranes (Bio-Rad). Membranes were blocked in Tris-buffered saline with 5% nonfat milk and 0.1% Tween and probed with antibodies. Bound proteins were detected with horseradish-peroxidase–conjugated secondary antibodies (Cell Signaling Technologies) and SuperSignal West Femto (Thermo Fisher Scientific). Antibodies used were anti-c-MYC (Cell Signaling Technology, 5605, anti-Phospho-c-MYC (Ser62) (Cell Signaling Technology, 13748), anti-β ACTIN (Cell Signaling Technology, 8457), anti-Phospho-p44/42 (Erk1/2) (Thr202/Tyr204) (Cell Signaling Technology, 4370), anti-p44/42 (Erk1/2) (Cell Signaling Technology, 4695), anti-Phospho-MEK1/2 (Ser217/221) (Cell Signaling Technology, 9154), anti-MEK1/2 (Cell Signaling Technology, 9122), anti-Phospho-p90RSK (Ser380) (Cell Signaling Technology, 11989), anti-RSK1/RSK2/RSK3 (Cell Signaling Technology, 9355), Anti-Rabbit IgG, HRP-linked Antibody (Cell Signaling Technology, 7074). Anti-FFX (Firefox) monoclonal antibodies were custom produced by Proteintech using FFX residues 13–104 as epitope.
The HNB ORF and eGFP (control) were cloned in an inducible lentivirus expression, TRE-gateway plasmid (pLIX_403, Addgene, #41395). Lentivirus was produced in HEK293T cells using the protocol described above. D458, NCI-H1792 and COLO 320DM cells were transfected with inducible HNB lentivirus and selected with 1 μg/mL concentration of Puromycin. Selected cells were seeded at a concentration of 4 × 10^5 cells per well. After 24 hours of seeding, the cells were treated with 1 μg/mL Doxycycline for 48 hours. The cells were then lysed using RIPA buffer and 1X protease inhibitor cocktail. The protein lysates were collected and quantified using the previously described protocol. 20 μg of whole-cell lysate was electrophoresed on a 4%–20% gradient polyacrylamide gel with SDS (Bio-Rad, Hercules, CA) and electroblotted onto polyvinylidene difluoride membranes (Bio-Rad). […] Bound proteins were detected with horseradish-peroxidase–conjugated secondary antibodies (Cell Signaling Technologies) and SuperSignal West Femto (Thermo Fisher Scientific). […]

For series [3], the system named is D458 cells. The series can be described thus: Orthotopic transplantation of D458 into brains of immunocompromised mice. Format: in vivo. The conditions noted are these: D458 sh.RNA1-PVT1ts vs sh.Cntrl in mouse brain; bioluminescence day 9, 14, 21; n=10 each, unpaired t-test. Here is the method: All animal procedures were conducted in accordance with the guidelines established by the Institutional Animal Care and Use Committee of Sanford Burnham Prebys Medical Discovery Institute. Efforts were made to minimize animal suffering and to reduce the number of animals used as per the guidelines of AAALAC International and a Multiple Project Assurance A3053–1 is on file in the OLAW, DHHS.

For another series, the system named is U2OS cells. The series can be described thus: Proliferation assay U2OS. The conditions noted are these: si.PVT1ts vs si_ctrl, n=3, two-way ANOVA. Format: cell-based, human. An excerpt: (§1) Cancer cell lines: COLO-320DM, SK-PN-DW, U2OS, BxPC-3, DU145, SKBR-3 and, NCI-H1792 were obtained from American Type Culture Collection (Rockville, MD) and grown in their required growth medium per the American Type Culture Collection description. D458 and MB002 were obtained from Dr. Michael Taylor’s lab at SickKids hospital, Toronto. Cell line identity for the master stocks were verified by STR genotyping (IDEXX BioResearch)
(§2) Supplementary Figure 14: Analysis of Cell Proliferation in MYC/PVT1 Neutral Cell Lines
(§3) (U2OS, BxPC-3, DU-145) following Transfection with si_PVT1ts or si_ctrl: Each experiment
(§4) was performed in triplicate (n=3), and statistical significance was determined using two-way
(§5) ANOVA (P values indicated)
(§6) .CC-BY 4.0 International licenseavailable under a
(§7) (which was not certified by peer review) is the author/funder, who has granted bioRxiv a license to display the preprint in perpetuity. It is made
(§8) The copyright holder for this preprintthis version posted February 22, 2025.; https://doi.org/10.1101/2025.02.17.638454doi: bioRxiv preprint […]

Another series has as its system BxPC-3 cells. The series can be described thus: Proliferation assay BxPC-3. Format: cell-based, human. The following applies: BxPC-3, si.PVT1ts vs si_ctrl; n=3, two-way ANOVA.
Source text: as §1, §2, §3, §4, §5, §6, §7, §8

For another series, the system named is DU-145 cells. The series can be described thus: Proliferation assay DU-145. Type of series: cell-based, human. The following applies: DU-145, si.PVT1ts vs si_ctrl; n=3, two-way ANOVA.
Source text: as §1, §2, §3, §4, §5, §6, §7, §8

Series [4] concerns MYC. The series can be described thus: Western blot of MYC in U2OS. Type of series: cell-based, human. The conditions noted are these: si.PVT1ts vs si.Ctrl, n=3, unpaired t-test. Here is the method:
(§9) For whole-cell lysate, the cell pellet was resuspended in RIPA buffer (Cell Signaling Technologies, Danvers, MA) supplemented with a protease inhibitor cocktail (Cell Signaling Technologies) and incubated on ice for 20 minutes. The lysate was then centrifuged at 14,000 revolutions/minute for 10 minutes at 4°C, and the supernatant was harvested. Protein concentration was quantified by BCA Protein Assay Kit (Thermo Fisher Scientific) as per kit protocol. Next, 20 μg of whole-cell lysate was electrophoresed on a 4%–20% gradient polyacrylamide gel with SDS (Bio-Rad, Hercules, CA) and electroblotted onto polyvinylidene difluoride membranes (Bio-Rad). Membranes were blocked in Tris-buffered saline with 5% nonfat milk and 0.1% Tween and probed with antibodies. Bound proteins were detected with horseradish-peroxidase–conjugated secondary antibodies (Cell Signaling Technologies) and SuperSignal West Femto (Thermo Fisher Scientific). […]
Supplementary Figure 10: FFX protein augments MYC expression (A) Western blot analysis of MYC expression in U2OS cells ectopically transduced with constructs expressing GFP (control) or FFX. […] (C&D) Western blot analysis and quantification of MYC expression in U2OS cells transduced with GFP (control), FFX, FFX(CO), and FFX ATG>TGA. […]
(In western blotting, separated proteins are transferred to a membrane and probed.)

Series [5] deals with MYC. The series can be described thus: Western blot of MYC in BxPC-3. The following applies: BxPC-3, si.PVT1ts vs si.Ctrl; n=3, unpaired t-test. Format: cell-based, human. On the procedure: as §9
The test system of series [6] is MYC. The series can be described thus: Western blot of MYC in DU-145. The conditions noted are these: DU-145, si.PVT1ts vs si.Ctrl; n=3, unpaired t-test. Type of series: cell-based, human. Here is the method: as §9

For the substance “shRNA1-PVT1ts: shRNA against PVT1ts, CCGGGGACAGCTTCAACCCATTACG CTCGAGCGTAATGGGTTGAAGCTGTCCTTTTTG (CCGGGGACAGCTTCAACCCATTACGCTCGAGCGTAATGGGTTGAAGCTGTCCTTTTTG)”, the cellular proliferation entry in the series with D458 cells [1] is “increased proliferation”. Also, the MYC protein levels entry with MYC [2] was “increased proliferation (Figure 4D) and MYC protein levels”. For the same substance, the “tumor growth after orthotopic injection” value in the series with D458 cells [3] was “grew significantly more aggressively than controls”.

Regarding “shRNA2-PVT1ts: shRNA against PVT1ts, CCGGACCTATGAGCTTTGAATAATT CAAGAGATTATTCAAAGCTCATAGGTTTTTT (CCGGACCTATGAGCTTTGAATAATTCAAGAGATTATTCAAAGCTCATAGGTTTTTT)”, the cellular proliferation entry in the series on D458 cells [1] was “increased proliferation”. Also, in the series with MYC [2], the MYC protein levels entry was “increased proliferation (Figure 4D) and MYC protein levels”.

Turning to “si.PVT1ts: siRNA targeting variants containing exons 7–9, 5’-ACCUAUGAGCUUUGAAUAA-3’ (other strand not given here)”, the cellular proliferation result with U2OS cells, in the series on BxPC-3 cells and in the series with DU-145 cells was “proliferate faster” in each case. In addition, the MYC protein levels entry with MYC [4], in the series with MYC [5] and in the series with MYC [6] was “increase in MYC protein levels” in each case.
